This is an account of results in US20050245606A1, “High-efficiency fullerene-based radical scavengers” (Nano-C, Inc., priority 2003, published 2005).

The assay is described as follows: Scavenging of cigarette smoke radicals in decalin, read out by DHR 6G fluorescence. The assay is classed as biochemical. Here is the method: Tests were conducted to study the effectiveness of methanofullerene derivatives against radicals present in cigarette smoke (predominantly peroxyl radical). The cigarette smoke was bubbled through a glass frit into a solvent (decalin) in which radical scavengers were dissolved. The smoke then exited this solvent and was passed through a second flask, in which a fluorescent probe that fluoresces upon oxidation by radicals was used (Dihydrorhodamine 6G (DHR 6G), purchased from Molecular Probes). The variation of fluorescent signal corresponds directly to the radical content of the cigarette smoke, and thus a measure of the reduction of radicals by the radical scavenger is measured. Signals were measured every 10 seconds.
Tests were conducted to study the sensitivity of the test apparatus in Example 1 to varying concentrations of Vitamin E as a radical scavenger to scavenge radicals present in cigarette smoke (predominantly peroxyl radical). The cigarette smoke was bubbled through a cylindrical, coarse glass frit into a solvent (decalin) in which radical scavengers were dissolved. The smoke then exited this solvent and was passed through a second flask, in which a fluorescent probe that fluoresces upon oxidation by radicals was used (Dihydrorhodamine 6G (DHR 6G), purchased from Molecular Probes). The variation of fluorescent signal corresponds directly to the radical content of the cigarette smoke, and thus a measure of the reduction of radicals by the radical scavenger is measured. Signals were measured every 10 seconds.

Turning to `COC(=O)CCCC1(c2ccccc2)C23C=Cc4cc5c6c7c4C21c1c2c4c(cc8ccc9cc(c6c6c9c8c4c6c17)C5)CC2=C3` (stereo not drawn) [PCBM, [6,6]-phenyl C61-butyric acid methyl ester], the “difference in fluorescence signal / radical scavenging efficiency versus Vitamin E” value (300 μM PCBM versus 300 μM Vitamin E) is reported as “very large difference in radical scavenging efficiency”. For the same compound, the “reduction of radicals by the radical scavenger (fluorescent signal of DHR 6G)” value (scavenger dissolved in decalin, comparison with Vitamin E under identical conditions, FIG. 6A) is “scavenges significantly more of the radicals present in the cigarette smoke than Vitamin E”.
As for Vitamin E [reference compound], the “change of fluorescent signal on doubling the scavenger concentration” value (150 μM versus 300 μM in decalin, FIG. 6B) was “very small deflection”.
